In patent US10472333B2, “P2X4 receptor antagonist” (NIPPON CHEMIPHAR CO., LTD., priority 2013, dated 2019):
Where a name gives a salt, the structure may show the parent alone. Read-outs that look alike come from different tables or passages of the source.

Biological target: T1, human P2X4 receptor (Homo sapiens, UniProt Q99571)
T1 sequence (Q99571 1-388): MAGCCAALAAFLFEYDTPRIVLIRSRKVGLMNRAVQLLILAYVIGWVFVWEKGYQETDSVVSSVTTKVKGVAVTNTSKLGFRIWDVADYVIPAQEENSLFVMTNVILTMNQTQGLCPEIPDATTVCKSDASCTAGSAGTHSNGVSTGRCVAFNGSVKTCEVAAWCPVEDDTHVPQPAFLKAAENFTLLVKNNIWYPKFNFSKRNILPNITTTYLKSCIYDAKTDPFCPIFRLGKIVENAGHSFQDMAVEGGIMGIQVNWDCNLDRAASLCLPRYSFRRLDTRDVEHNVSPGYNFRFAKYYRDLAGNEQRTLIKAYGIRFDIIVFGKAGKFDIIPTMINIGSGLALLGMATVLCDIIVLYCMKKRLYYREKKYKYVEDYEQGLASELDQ
Assay: P2X4 receptor antagonist activity, ATP-induced intracellular calcium (Fura-2 AM) in 1321N1 cells stably expressing human P2X4 receptor
Assay type: cell-based

[1] = Table 9, 1321N1 cells expressing human P2X4, test substance 15 minutes before ATP, read-out: Inhibitory activity IC50

| Structure (SMILES) | IC50 [nM] | further results |
| --- | --- | --- |
| CCc1c(O)cccc1C(=O)Nc1ccc(C2=NCC(=O)Nc3c2ccc2ccccc32)cc1 [Example 2, 2-Ethyl-3-hydroxy-N-[4-(2-oxo-2,3-dihydro-1H-naphtho[1,2-e][1,4]-diazepin-5-yl)phenyl]benzamide] | 770 |  |
| CCc1ncccc1C(=O)Nc1ccc(C2=NCC(=O)Nc3c2ccc2ccccc32)cc1 [Example 3, 2-Ethyl-N-[4-(2-oxo-2,3-dihydro-1H-naphtho[1,2-e][1,4]-diazepin-5-yl)phenyl]nicotinamide dihydrochloride] | 1600 |  |
| CCc1cccc(O)c1C(=O)Nc1ccc(C2=NCC(=O)Nc3c2ccc2ccccc32)cc1 [Example 4, 2-Ethyl-6-hydroxy-N-[4-(2-oxo-2,3-dihydro-1H-naphtho[1,2-e][1,4]-diazepin-5-yl)phenyl]benzamide] | 1500 |  |
| COc1ccccc1CC(=O)Nc1ccc(C2=NCC(=O)Nc3c2ccc2ccccc32)cc1 [Example 7, 2(2-Methoxyphenyl)-N-[4-(2-oxo-2,3-dihydro-1H-naphtho[1,2-e][1,4]-diazepin-5-yl)phenyl]acetamide] | 970 |  |
| CC(C)(C)c1ccccc1C(=O)Nc1ccc(N2C(=O)CC(=O)Nc3c2ccc2ccccc32)cc1F [Example 12, 2-tert-Butyl-N-[4-(2,4-dioxo-3,4-dihydro-1H-naphtho[2,1-b][1,4]diazepin-5(2H)-yl)2-fluorophenyl]benzamide] |  | IC50 [1]: 370 nM |
| CN(C)c1ncccc1C(=O)Nc1ccc(N2C(=O)CC(=O)Nc3c2ccc2ccccc32)cc1 [Example 14, 2-(Dimethylamino)-N-[4-(2,4-dioxo-2,3-dihydro-1H-naphtho[1,2-b][1,4]diazepin-5(2H)-yl)phenyl]nicotinamide hydrochloride] |  | IC50 [1]: 590 nM |
| O=C1CC(=O)N(c2ccc(NC(=O)c3cccnc3N3CCOCC3)cc2)c2ccc3ccccc3c2N1 [Example 18, N-[4-(2,4-Dioxo-3,4-dihydro-1H-naphtho[1,2-b][1,4]-diazepin-5(2H)-yl)phenyl]-2-(morpholin-4-yl)-nicotinamide hydrochloride] |  | IC50 (Table 10, 1321N1 cells expressing human P2X4, test substance 15 minutes before ATP, read-out: Inhibitory activity IC50): 1300 nM |
| O=C1CN=C(c2ccc(NC(=O)c3cccnc3-n3cccc3)cc2)c2ccc3ccccc3c2N1 [Example 19, N-[4-(2-Oxo-2,3-dihydro-1H-naphtho[1,2-e][1,4]-diazepin-5-yl)phenyl]-2-(1H-pyrrol-1-yl)nicotinamide dihydrochloride] | 2400 |  |
| O=C1CN=C(c2ccc(NC(=O)c3cccnc3N3CCOCC3)cc2)c2ccc3ccccc3c2N1 [Example 20, 2-(Morpholin-4-yl)-N-[4-(2-oxo-2,3-dihydro-1H-naphtho[1,2-e][1,4]-diazepin-5-yl)phenyl]nicotinamide dihydrochloride] | 2500 |  |
| O=C1CN=C(c2ccc(NC(=O)c3cccnc3N3CCCC3)cc2)c2ccc3ccccc3c2N1 [Example 21, N-[4-(2-Oxo-2,3-dihydro-1H-naphtho[1,2-e][1,4]-diazepin-5-yl)phenyl]-2-(pyrrolidin-1-yl)nicotinamide dihydrochloride] | 1300 |  |
| CN(C)c1ccncc1C(=O)Nc1ccc(C2=NCC(=O)Nc3c2ccc2ccccc32)cc1 [Example 22, 4-(Dimethylamino)-N-[4-(2-oxo-2,3-dihydro-1H-naphtho[1,2-e][1,4]diazepin-5 yl)phenyl]nicotinamide dihydrochloride] | 1500 |  |
| CC(C)c1ncccc1C(=O)Nc1ccc(C2=NCC(=O)Nc3c2ccc2ccccc32)cc1 [Example 23, 2-Isopropyl-N-[4-(2-oxo-2,3-dihydro-1H-naphtho[1,2-e][1,4]diazepin-5 yl)phenyl]nicotinamide dihydrochloride] | 2300 |  |
| CC(C)Nc1ncccc1C(=O)Nc1ccc(C2=NCC(=O)Nc3c2ccc2ccccc32)cc1 [Example 24, 2-(Isopropylamino)-N-[4-(2-oxo-2,3-dihydro-1H-naphtho[1,2-e][1,4]diazepin-5-yl)phenyl]nicotinamide dihydrochloride] | 8600 |  |
